The target of data set [1] is T1, Renin (Homo sapiens, UniProt P00797).
T1 sequence (P00797 whole entry): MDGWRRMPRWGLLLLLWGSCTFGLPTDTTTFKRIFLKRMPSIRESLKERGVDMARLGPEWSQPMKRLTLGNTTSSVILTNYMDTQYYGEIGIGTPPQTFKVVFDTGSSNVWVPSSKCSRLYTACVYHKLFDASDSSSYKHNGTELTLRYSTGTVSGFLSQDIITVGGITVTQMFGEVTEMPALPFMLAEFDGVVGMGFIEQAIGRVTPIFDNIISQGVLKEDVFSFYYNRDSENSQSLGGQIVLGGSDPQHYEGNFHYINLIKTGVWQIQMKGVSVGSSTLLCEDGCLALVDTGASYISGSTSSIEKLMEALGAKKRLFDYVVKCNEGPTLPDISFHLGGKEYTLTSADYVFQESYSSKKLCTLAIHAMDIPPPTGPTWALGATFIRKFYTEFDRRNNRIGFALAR
In words: Inhibition of human recombinant renin by TR-FRET assay.

A further data set deals with Rattus norvegicus. In words: Reduction in mean arterial blood pressure in orally dosed hypertensive telemetered double-transgenic rat overexpressing human renin and angiotensinogen. It is filed as functional, organism-based.
Data set [2] deals with T1, Renin. Put plainly: Inhibition of human recombinant renin in presence of plasma by TR-FRET assay.
Data set [3] can be described thus: Ratio of permeability from basolateral to apical to side over apical to basolateral side in human Caco2 cells. It is filed as ADME, cell-based. The settings on record: caco-2.
The target of another data set is Cytochrome P450 3A4 (Homo sapiens, UniProt P08684). Put plainly: Inhibition of CYP3A4 (unknown origin) using 7-benzyl-4-trifluoromethylcoumarin as fluorometric substrate. It is filed as ADME.
Cytochrome P450 3A4, sequence (P08684 whole entry): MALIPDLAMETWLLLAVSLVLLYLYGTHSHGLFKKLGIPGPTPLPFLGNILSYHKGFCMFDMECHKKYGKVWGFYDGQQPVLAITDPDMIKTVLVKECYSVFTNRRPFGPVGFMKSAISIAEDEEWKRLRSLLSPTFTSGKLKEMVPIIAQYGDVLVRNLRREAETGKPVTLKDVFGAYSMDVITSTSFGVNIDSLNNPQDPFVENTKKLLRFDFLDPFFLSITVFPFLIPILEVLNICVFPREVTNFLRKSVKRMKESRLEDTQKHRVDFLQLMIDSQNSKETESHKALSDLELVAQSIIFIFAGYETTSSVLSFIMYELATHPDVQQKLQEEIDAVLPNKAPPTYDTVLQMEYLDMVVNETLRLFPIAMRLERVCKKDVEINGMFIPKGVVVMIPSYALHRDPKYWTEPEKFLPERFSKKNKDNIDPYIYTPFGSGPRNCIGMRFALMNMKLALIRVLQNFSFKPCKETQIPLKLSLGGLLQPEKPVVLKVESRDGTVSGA

Take `COCCCOc1cc(C(=O)N(C[C@H]2CNC[C@@H]2OC(=O)NCc2ccccc2)C(C)C)ccc1OC`: at Renin [1], the IC50 was found to be 9200 nM. In the case of `COCCCOc1cc(C(=O)N(C[C@@H]2CNC[C@H]2OC(=O)NCc2ccccc2)C(C)C)ccc1OC`, in the data set on Rattus norvegicus, the inhibition entry was “Dose-dependent effect”.

As for `COCCCOc1cc(C(=O)N(C[C@@H]2CNC[C@H]2Oc2ccc(C(F)(F)F)cc2)C(C)C)ccc1OC` (racemic), the IC50 on Renin [1] was determined as 450 nM. On to `COCCCOc1cc(C(=O)N(C[C@@H]2CNC[C@H]2OCc2ccccc2)C(C)C)ccc1OC` (racemic), for which the half-maximal inhibitory concentration (IC50) is 850 nM on Renin [2] and 770 nM on Renin [1]. The Ratio in data set [3] came to 62. Take `COCCCOc1cc(C(=O)N(C[C@H]2CNC[C@H]2OCc2ccccc2)C(C)C)ccc1OC` (racemic): the IC50 at Renin [1] is 3150 nM. For the molecule `COCCCOc1cc(C(=O)N(C[C@@H]2CNC[C@H]2OCc2cccc(OC)c2)C(C)C)ccc1OC` (racemic), the IC50 is ≤ 200 nM against Cytochrome P450 3A4 and 250 nM on Renin [1]. For the molecule `COCCCOc1cc(C(=O)N(C[C@@H]2CNC[C@H]2OCc2cccc(Oc3ccccc3)c2)C(C)C)ccc1OC` (racemic), the IC50 at Renin [1] amounted to 250 nM. Turning to `COCCCOc1cc(C(=O)N(C[C@@H]2CNC[C@H]2OCc2cccc(-c3ccccc3)c2)C(C)C)ccc1OC` (racemic), the IC50 is 1100 nM at Renin [2], ≤ 200 nM at Cytochrome P450 3A4 and 145 nM on Renin [1]. Consider `COCCCOc1cc(C(=O)N(C[C@@H]2CNC[C@H]2OCc2cccc(-n3cccc3)c2)C(C)C)ccc1OC` (racemic), for which the IC50 at Cytochrome P450 3A4 is ≤ 200 nM; on Renin [1], 85 nM.

Take `COCCCOc1cc(C(=O)N(C[C@@H]2CNC[C@H]2OCc2cccc(-c3cccc(C)c3)c2)C(C)C)ccc1OC` (racemic): the IC50 at Renin [1] was determined as 65 nM. Consider `COCCCOc1cc(C(=O)N(C[C@@H]2CNC[C@H]2OCc2cccc(-c3cccc(OC)c3)c2)C(C)C)ccc1OC` (racemic), for which the IC50 on Renin [1] turned out to be 350 nM. As to `COCCCOc1cc(C(=O)N(C[C@@H]2CNC[C@H]2OCc2cccc(-c3ccccc3OC)c2)C(C)C)ccc1OC` (racemic), the IC50 at Renin [1] was found to be 65 nM. Still for that read-out and setting: then `CCOc1ccccc1-c1cccc(CO[C@@H]2CNC[C@H]2CN(C(=O)c2ccc(OC)c(OCCCOC)c2)C(C)C)c1` (racemic), with 550 nM; and `COCCCOc1cc(C(=O)N(C[C@@H]2CNC[C@H]2OCc2cccc3ccccc23)C(C)C)ccc1OC` (racemic), with 200 nM; and `COCCCOc1cc(C(=O)N(C[C@@H]2CNC[C@H]2OCc2ccc3ccccc3c2)C(C)C)ccc1OC` (racemic), with 90 nM. Turning to `COCCCOc1cc(C(=O)N(C[C@@H]2CNC[C@H]2OC(=O)Nc2cccc(OC)c2)C(C)C)ccc1OC` (racemic), at Renin [1], the IC50 is 300 nM.

As to `COCCCOc1cc(C(=O)N(C[C@@H]2CNC[C@H]2OC(=O)NCc2ccccc2)C(C)C)ccc1OC` (racemic), the IC50 at Renin [1] amounted to 80 nM.

On to `COCCCOc1cc(C(=O)N(C[C@@H]2CNC[C@H]2OC(=O)N(C)Cc2ccccc2)C(C)C)ccc1OC` (racemic), for which the IC50 on Renin [1] is 350 nM. As for `COCCCOc1cc(C(=O)N(C[C@@H]2CNC[C@H]2OC(=O)N2CCCC2)C(C)C)ccc1OC` (racemic), on Renin [1], the IC50 stood at 1150 nM. As for `COCCCOc1cc(C(=O)N(C[C@@H]2CNC[C@H]2OC(=O)NCc2ccco2)C(C)C)ccc1OC` (racemic), on Renin [1], the IC50 came out at 90 nM.

In the case of `COCCCOc1cc(C(=O)N(C[C@@H]2CNC[C@H]2OC(=O)NCc2nccs2)C(C)C)ccc1OC` (racemic), the IC50 at Renin [1] is 100 nM. Regarding `COCCCOc1cc(C(=O)N(C[C@@H]2CNC[C@H]2OC(=O)N(C)Cc2cccc3ccccc23)C(C)C)ccc1OC` (racemic), the values for the IC50 at Renin [2] and on Renin [1] were 35 nM and 45 nM, respectively. For the molecule `COCCCOc1cc(C(=O)N(C[C@@H]2CNC[C@H]2OC(=O)N(C)Cc2cccc3c2OCO3)C(C)C)ccc1OC` (racemic), the IC50 on Renin [1] came to 20 nM.

Turning to `COCCCOc1cc(C(=O)N(C[C@@H]2CNC[C@H]2OC(=O)N(C)Cc2nc3ccccc3s2)C(C)C)ccc1OC` (racemic), the half-inhibitory concentration (IC50) on Renin [1] was found to be 30 nM. As to `COCCCOc1cc(C(=O)N(C[C@@H]2CNC[C@H]2OC(=O)N(C)Cc2ccccc2-n2cccc2)C(C)C)ccc1OC` (racemic), at Renin [1], the half-maximal inhibitory concentration (IC50) was found to be 9 nM.

For `COCCCOc1cc(C(=O)N(C[C@@H]2CNC[C@H]2OC(=O)N(C)Cc2ccccc2N2CCCC2)C(C)C)ccc1OC` (racemic), the concentration for half-maximal inhibition (IC50) at Renin [1] is 80 nM.
